Patent publication US5606037A, “Processes antineoplastic heteronaphthoquinones” (BioChem Pharma Inc., priority 1995, dated 1997)
Where a name gives a salt, the structure may show the parent alone.

Columns and labels:
Format in all cases: cell-based, Human
[1] = test system: SKOV3 (Ovarian adenocarcinoma); experiment: In vitro cytotoxicity, microculture tetrazolium (MTT) assay, SKOV3; settings: Homo sapiens, SK-OV-3; SKOV3 ovarian adenocarcinoma; 48 h with compound, further 48 h, MTT; Table 1
Description: (§1) The microculture tetrazolium assay was used to test in vitro cytotoxicity. This assay is described in Plumb, J. A. et al., 1989 Cancer Research 49, 4435-4440, which is herein incorporated by reference. The cytotoxicity of compounds towards tumor cells is measured in vitro using the assay. This assay method is based upon the ability of live, but not dead cells to reduce the yellow water soluble dye 3-(4,5-dimethylthiazol-2-yl)-2,5-diphenyltetrazolium bromide (MTT) to its water insoluble purple formazan product.
(§2) Human Tumor Cell lines, used were:
SKOV3 (Ovarian adenocarcinoma)--provided by Dr. V. Ling, Ontario Cancer Institute.
(§3) The cells were maintained in exponential growth in culture in minimal essential media (MEM) supplemented with non-essential amino acids, and containing 15% (v/v) fetal. bovine serum, 5 mM L-glutamine, 1 mM sodium pyruvate, and 0.1 U/ml insulin. All cell lines were grown at 37° C. in an atmosphere of 5% CO2 in air.
(§4) MTT: 2 mg/ml in phosphate buffered saline (stable at 4° C. in dark for 1 week).
(§5) Sorensen's buffer: 0.1M glycine/NaOH, pH 10.5, containing 0.1M NaCl.
(§6) Test compounds: 20 mM in DMSO and diluted to a final concentration of 200 μM in culture medium before use.
(§7) For each assay, doxorubicin is included as an inter-assay standard. This allows us to monitor the behaviour of the assay in general, and in particular, to check that the SKVLB line has maintained its resistant phenotype.
(§8) The assays are carried out in 96-well (8 well×12 well) microtiter plates. Serial dilutions of the compound are tested along the length of the plate. A 1:3 serial dilution of compound in culture medium covers a concentration range from 100 μM to 1.7 nM. Each concentration of compound is tested in quadruplet, allowing two compounds to be tested per plate. Wells containing no cells (blank) and cells with no test compound (control) are included on each plate.
(§9) Cells are plated out in 100 μl of culture medium in the microtiter plates at a density of around 1,500-4,000 cells per well. The plates are incubated overnight to allow the cells to become adherent after which the test compound is added (100 μl of appropriate dilution per well). The cells are incubated with test compound at 37° C. for 48 h after which the compound is replaced with fresh medium. After a further 48 h incubation at 37° C., 50 μl of MTT solution (2 mg/ml) is added to each well. The plates are incubated in the dark for 4 h at 37° C. after which the medium is removed. The MTT formazan product is extracted from the cells by the addition of 200 μl DMSO followed by 50 μl of Sorensen's buffer. The plates are shaken briefly and the absorbance at 570 nm is read using a Molecular Devices UV max plate reader. Curves are fit to the MTT assay data using a four parameter logistic equation, and the data are normalized to fit a 0% to 100% survival scale.

[2] = test system: SKVLB (Ovarian; multidrug resistant); experiment: In vitro cytotoxicity, microculture tetrazolium (MTT) assay, SKVLB; settings: Homo sapiens; SKVLB multidrug resistant ovarian; 48 h with compound, further 48 h, MTT; Table 1
Description: as §1, §2
SKVLB (Ovarian; multidrug resistant)--Dr. V. Ling, Ontario Cancer Institute.
as §3, §4, §5, §6, §7, §8, §9

[3] = test system: T47D (Ductal carcinoma of breast); experiment: In vitro cytotoxicity, microculture tetrazolium (MTT) assay, T47D; settings: Homo sapiens, 48 h with compound, further 48 h, Table 1
Description: as §1, §2
T47D (Ductal carcinoma of breast)--ATCC catalog #HTB-133.
as §3, §4, §5, §6, §7, §8, §9

Lox (Melanoma) = experiment: In vitro cytotoxicity, microculture tetrazolium (MTT) assay, LOX; settings: Homo sapiens, 48 h with compound, further 48 h, Table 1
Description: as §1, §2
Lox (Melanoma)--Southern Research Institute.
as §3, §4, §5, §6, §7, §8, §9

[4] = test system: HT 29 (Colon adenocarcinoma); experiment: In vitro cytotoxicity, microculture tetrazolium (MTT) assay, HT29; settings: Homo sapiens, HT-29, 48 h with compound, further 48 h, Table 1
Description: as §1, §2
HT 29 (Colon adenocarcinoma) ATCC catalog #HTB-38.
as §3, §4, §5, §6, §7, §8, §9

Structure (SMILES)	IC50 [1] [µM]	IC50 [2] [µM]	IC50 [3] [µM]	IC50 (Lox (Melanoma)) [µM]	IC50 [4] [µM]
CC(=O)O[C@@H]1[C@H](C)O[C@@H](O[C@@H]2O[C@@H](C(C)=O)CC3=C2C(=O)c2ccccc2C3=O)C(Br)[C@@H]1OC(C)=O (stereo partly drawn) [BCH2099, (1'S,1S,3R)-methyl-(1-[2',6'-dideoxy-3',4'-diacetoxy-2'-bromo-L-lyxohexopyranose]-5,10-dioxo-3,4,5,10-tetrahydronaphtho-[2,3-c]-pyran-3-yl) ketone]	0.599 to 2	0.462 to 8.4	0.728 to 3.4	0.128 to 1.1	0.303 to 1.7
CC(C)C(=O)[C@@H]1CC2=C(C(=O)c3ccccc3C2=O)[C@@H](O[C@H]2C[C@H](NC(=O)C(F)(F)F)[C@H](O)[C@H](C)O2)O1 [BCH2112, (1'S, 1R, 3S)-isopropyl-[1-(2',3',6'-trideoxy-3'-trifluoroacetamido-L-lyxohexopyranose)-5,10-dioxo-3,4,5,10-tetrahydro-1H-naphtho-[2,3-c]-pyranyl]-ketone]	0.104	1.7	0.27	0.21	0.065
COC(=O)[C@]1(C)CC2=C(C(=O)c3ccccc3C2=O)[C@@H](O[C@H]2C[C@H](NC(=O)C(F)(F)F)[C@H](O)[C@H](C)O2)O1 [BCH2077, (1'S, 1R, 3S)-1-(3-trifluoroacetamido-2',3',6'-trideoxy-L-lyxohexopyranose)-3-methoxycarbonyl-3-methyl-3,4,5,10-tetrahydro-5,10-dioxo-1H-naphtho-[2,3-c]pyran]	1.94	21	7.7	1.91	3.4
CC(=O)[C@H]1CC2=C(C(=O)c3ccccc3C2=O)[C@H](O[C@@H]2O[C@@H](C)[C@@H](O)[C@@H](O)[C@H]2I)O1 [BCH2014, (1'S,1S,3R)-methyl-(1-[2',6'-dideoxy-3',4'-dihydroxy-2'-iodo-L-lyxohexopyranose]-5,10-dioxo-3,4,5,10-tetrahydronaphtho[2,3-c]-pyran-3-yl)-ketone]	21.5	39.8	61.8	35.9	61.3
COC(=O)[C@]1(C)CC2=C(C(=O)c3ccccc3C2=O)[C@H](O[C@H]2C[C@H](NC(=O)C(F)(F)F)[C@H](O)[C@H](C)O2)O1 [BCH2081, (1'S, 1S, 3S)-1-(3'-trifluoroacetamido-2',3',6'-trideoxy-lyxohexopyranose)-3-methoxycarbonyl-3-methyl-5,10-dioxo-4,5,10-trihydro-1H-naphtho-[2,3-c]-pyran]	1.3	19	7.4	2.7	3.8
CC[C@H]1CO[C@H](O[C@H]2C[C@H](NC(=O)C(F)(F)F)[C@H](O)[C@H](C)O2)C2=C1C(=O)c1ccccc1C2=O [BCH2091, (1'S, 1R, 4R)-5,10-dioxo-4-ethyl-1-(2',3',6'-trideoxy-3'-trifluoroacetamido-L-lyxohexopyranose)-3,4,5,10-tetrahydro-1H-naphtho-[2,3-c]pyran]	13.4	32	16	3.3	11.3
CC(=O)[C@@H]1CC2=C(C(=O)c3ccccc3C2=O)[C@@H](O[C@@H]2O[C@@H](C)[C@@H](O)[C@@H](NC(=O)C(F)(F)F)C2I)O1 (stereo partly drawn) [BCH2023, (1'S,1R,3S)-methyl-(1-[2',3',6'-trideoxy-2'-iodo-3'-trifluoroacetamido-4'-hydroxy-L-lyxohexopyranose]-5,10-dioxo-3,4,5,10-tetrahydronaphtho-[2,3-c]-pyran-3-yl) ketone]	0.73	3.2	5.5	0.67	0.98
CC(=O)[C@H]1CC2=C(C(=O)c3ccccc3C2=O)[C@H](O[C@@H]2O[C@@H](C)[C@@H](O)[C@@H](NC(=O)C(F)(F)F)C2I)O1 (stereo partly drawn) [BCH2022, (1'S,1S,3R)-methyl-(1-[2',3',6'-trideoxy-2'-iodo-3'-trifluoroacetamido-4'-hydroxy-L-lyxohexopyranose]-5,10-dioxo-3,4,5,10-tetrahydronaphtho-[2,3-c]-pyran-3-yl) ketone]	0.442	1.87	0.934	0.484	0.532
COC(=O)[C@@]1(C)CC2=C(C(=O)c3ccccc3C2=O)[C@H](O[C@H]2C[C@H](NC(=O)C(F)(F)F)[C@H](O)[C@H](C)O2)O1 [BCH2076, (1'S,1S,3R)-1-(3'-trifluoroacetamido-2',3',6'-trideoxy-lyxo-L-hexopyranose)-3-methoxycarbonyl-3-methyl-3,4,5,10-tetrahydro-5,10-dioxo-naphtho-[2,3-c]pyran]	1.43	12.4	6.53	1.8	2.6
COC1OC(C(=O)Nc2ccccc2)=CC2=C1C(=O)c1ccccc1C2=O (stereo not drawn) [BCH2044, 1-methoxy-3-N-anilinylcarbonyl-5,10-dioxo-5,10-dihydro-1H-naphtho-[2,3-c]-pyran]	1.44	5.11	4.25	0.38	0.194
CC(=O)C1CC2=C(C(=O)c3ccccc3C2=O)C(O)O1 (stereo not drawn) [BCH1148, Methyl (1-hydroxy-5,10-dioxo-3,4,5,10-tetrahydronaphtho [2,3-C]pyran-3-yl) ketone]	> 100	> 100	> 100	> 100	> 100
CC(=O)[C@@H]1CC2=C(C(=O)c3ccccc3C2=O)[C@@H](O[C@H]2C[C@H](NC(=O)C(F)(F)F)[C@H](I)[C@H](C)O2)O1 [BCH1620, (1'-S,1-R,3-S)-methyl-(1-[2',3',6'-trideoxy-3'-trifluoroacetamido-4'-iodo-L-lyxohexopyranose]-5,10-dioxo-3,4,5,10-tetrahydronaphtho-[2,3-c]-pyran-3-yl)-ketone]	0.0042	0.216	0.183	0.0227	0.0328
COC(=O)[C@@H](N)COC1OC(C(C)=O)CC2=C1C(=O)c1ccccc1C2=O (mixture of isomers) [BCH1654, (1S, 2'S, 3R) and (1R, 2'S, 3S)-methyl-(1-[O-serinemethyl ester]-5,10-dioxo-3,4,5,10-tetrahydronaphtaleno[2,3-C]pyran-3-yl) ketone hydrochloride]	0.71	3.73	1.59	1.19	3.58
CC(C)[C@@H]1CC2=C(C(=O)c3ccccc3C2=O)[C@@H](O[C@H]2C[C@H](NC(=O)C(F)(F)F)[C@H](O)[C@H](C)O2)O1 [BCH2053, (1'S, 1R, 3S)-5,10-dioxo-3-isopropyl-1-(2',3',6'-trideoxy-3'-trifluoroacetamido-L-lyxohexopyranose)-3,4,5,10-tetrahydro-1H-naphtho-[2,3-c]-pyran]	4.73	21.2	12.3	3.25	14
CO[C@H]1C[C@H](O[C@H]2O[C@H](C(C)=O)C[C@]34O[C@]23C(=O)c2ccccc2C4=O)O[C@@H](C)[C@H]1OS(C)(=O)=O [BCH2141, (1'-S,1-R,3-S,4a-S,10a-S)-methyl-(1-[2',3',4',6'-tetradeoxy-3'-methoxy-4'-O-methanesulfonyl-L-lyxohexopyranose)-4a,10a-epoxy-5,10-dioxo-3,4,5,10-tetrahydronaphtho-[2,3-c]pyran-3-yl) ketone]	8.12	9.96	3.79	1.82	6.44
